Assay results from paper PMC2972509 (Journal of medicinal chemistry, 2010).
Where “and” joins values, the source holds several entries; their conditions need not be identical. Equal values may be shown once. Entries after “also recorded” stand apart in the source; their conditions may differ.

Legend:
dopamine D4 receptor = molecular target: T1, dopamine D4 receptor (Rattus norvegicus, UniProt P30729); assay: Radioligand competition binding at cloned dopamine D4 receptor; conditions: for D4 Ki, nM ± SEM: [3H]MSP, cloned rat D4 receptor in HEK293 membranes; for Selectivity for D4 over off-target receptors: over D2, D3, 5-HT1A, 5-HT2A, 5-HT2C and sigma1 receptors
T1 sequence (P30729 1-387): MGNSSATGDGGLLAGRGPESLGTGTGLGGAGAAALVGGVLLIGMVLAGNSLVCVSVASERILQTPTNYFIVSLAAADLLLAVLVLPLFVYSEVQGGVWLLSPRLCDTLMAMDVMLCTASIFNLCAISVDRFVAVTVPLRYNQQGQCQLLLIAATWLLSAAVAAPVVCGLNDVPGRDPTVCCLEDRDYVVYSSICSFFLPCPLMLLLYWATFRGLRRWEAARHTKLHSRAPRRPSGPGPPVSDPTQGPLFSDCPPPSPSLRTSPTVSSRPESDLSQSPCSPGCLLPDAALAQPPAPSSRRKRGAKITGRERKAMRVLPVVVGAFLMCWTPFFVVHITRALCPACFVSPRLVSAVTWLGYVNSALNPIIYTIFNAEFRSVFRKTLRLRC

[1] = Preliminary disposition studies in mice; format: in vivo; conditions: for Tmax: male, CD1, mouse, plasma, ip; for Maximum brain concentration (mean ± SD) / Maximum plasma concentration (mean ± SD): parent compound, 7 after 30 min, 13 after 15 min
[2] = molecular target: T2, cloned D4 dopamine receptor (Rattus norvegicus, UniProt P30729); assay: D4 receptor functional assay: decrease in forskolin-stimulated cAMP accumulation; format: cell-based; conditions: Gi/o-mediated
T2 sequence (P30729 1-387): T1 sequence (P30729 1-387)

Row | SMILES | D4 Ki, nM ± SEM (dopamine D4 receptor) | Selectivity for D4 over off-target receptors (dopamine D4 receptor) [fold] | Tmax ([1]; 10 mg/kg) [min] | Time up to which plasma concentrations were consistently detected ([1]; mice, 10 mg/kg i.p.) | Time up to which quantifiable brain levels were consistently evident ([1]; mice, 10 mg/kg i.p.) | Maximum brain concentration (mean ± SD) ([1]; mice, 10 mg/kg i.p.) [µg/g] | Maximum plasma concentration (mean ± SD) ([1]; mice, 10 mg/kg i.p., 10 mg/kg) | Functional property at D4 receptor [2] | Fold higher D4 affinity than the 3-methoxy analog 5 (dopamine D4 receptor) | Time of mean brain Cmax ([1]; mice, 10 mg/kg i.p.) [min] | Plasma concentration after 30 minutes (below limit of quantitation) ([1]; mice, 10 mg/kg i.p., 0.2 ml plasma) | Maximum plasma concentration (mean ± SD) ([1]; mice, 10 mg/kg i.p.) [µg/mL]
1 | COc1cccc(C(=O)NCCN2CCN(c3ncccc3C#N)CC2)c1 [Compound 7, N-[2-[4-(3-Cyanopyridin-2-yl)piperazin-1-yl]ethyl]-3-methoxybenzamide] | nanomolar affinity | > 100 | 30 | up to 60 minutes | up to 30 min | 0.14 ± 0.02 | 0.37 ± 0.02 µg/mL and 0.37 ± 0.21 µg/mL | agonist properties; also recorded: agonists | – | – | – | –
2 | O=C(NCCN1CCN(c2noc3ccccc23)CC1)c1ccc(F)cc1 [Compound 11, N-[2-[4-(1,2-Benzisoxazol-3-yl)piperazin-1-yl]ethyl]-4-fluorobenzamide] | subnanomolar | – | – | – | – | – | – | – | approximately 6 fold | – | – | –
3 | N#Cc1cccnc1N1CCN(CCNC(=O)c2ccc(F)cc2)CC1 [Compound 13, N-[2-[4-(3-Cyanopyridin-2-yl)piperazin-1-yl]ethyl]-4-fluorobenzamide] | subnanomolar; also recorded: nanomolar affinity | > 100 | 15 | – | up to 60 min | 0.47 ± 0.20 | – | agonist properties; also recorded: agonists | – | 15 | less than 0.1 µg/mL | 0.13 ± 0.10
